Assay results from patent US20250120932A1, “PHARMACEUTICAL COMPOSITION” (NEUROPRO THERAPEUTICS, INC., priority 2021, published 2025).
One block for each compound: values may come before it.

Legend:
[1] = Oral delivery of unformulated Bumetanide Dibenzylamide in Beagle dogs, pharmacokinetics and bioavailability; format: in vivo; conditions: oral non-formulated Bumetanide Dibenzylamide
[2] = Pharmacokinetic study in cynomolgus monkeys after oral (nasogastric) gavage, sublingual and intravenous administration; format: in vivo; conditions: monkeys, after SL dosing of Bumetanide Dibenzylamide
Method: A pharmacokinetic study was done in cynomolgus monkeys following single oral (nasogastric) gavage, sublingual, and intravenous administration. […] Calibration curves, blanks, and analytical QCs were prepared in monkey plasma (K2EDTA). The extracts were evaporated to dryness, reconstituted, and then analyzed by LC-MS/MS. The calibration range was 0.250-250 ng/mL for both analytes.
If the criteria for either the calibration curve or the analytical QCs were not met, the analytical run was rejected. […] No deviations were found during the bioanalytical phase of the study conducted by Origin. Calibration curves were derived from the individual analyte to internal standard peak area ratios using the least squared regression of the ratio versus the nominal concentration of the calibration standard, prepared in duplicate. The regression was then used to back-calculate the concentration of each calibration standard, QC sample and study sample. […] Analyst® Software Version 1.6.3 (Applied Biosystems-MDS Sciex), operated with Windows® (Microsoft), was used for instrument control, data acquisition, and peak integrations. Peak area ratios, standard curve regressions, and sample concentration/accuracy values were calculated with Analyst® Software Version 1.6.3. Other results (e.g., mean statistics) were calculated with Excel® (Microsoft).
There was no apparent sex difference for the second formulation. […] A fourth formulation comprising the composition B listed in Table 54 was also administered in monheys.

physchem = experiment: physchem
Description: Crucial to the efficacy of any treatment by a pharmaceutical composition is the overall systemic bioavailability of the pharmaceutical composition used for said treatment. […] LogP is one measure of lipophyilicity, and is the octal:water partition coefficient expressed as a log ratio of molecule in octanol relative to water after mixing.

Caco-2 cells = experiment: Permeability of test compounds in Caco-2 assay
Method: (§1) Caco-2 cells purchased from ATCC were seeded onto […] (PET) in 96-well Corning Insert plates at 1×10^5 cells/cm^2, and refreshed medium every 4˜5 days until to the 21st to 28th day for confluent cell monolayer formation.
(§2) The transport buffer in the study was HBSS with 10.0 mM HEPES at pH 7.40±0.05. Test compound was tested at 2.00 μM bi-directionally in duplicate. Digoxin was tested at 10.0 μM bi-directionally in duplicate, while nadolol and metoprolol were tested at 2.00 μM in A to B direction in duplicate. Final DMSO concentration was adjusted to less than 1%. The plate was incubated for 2 hours in CO2 incubator at 37±1° C., with 5% CO2 at saturated humidity without shaking. And all samples after mixed with acetonitrile containing internal standard were centrifuged at 3200×g for 10 min. For nadolol and metoprolol, 200 μL supernatant solution was diluted with 600 μL ultra-pure water for LC-MS/MS analysis. For digoxin and test compounds, 200 μL supernatant solution was diluted with 200 μL ultra-pure water for LC-MS/MS analysis. Concentrations of test and control compounds in starting solution, donor solution, and receiver solution were quantified by LC-MS/MS methodologies, using peak area ratio of analyte/internal standard. After transport assay, lucifer yellow rejection assay was applied to determine the Caco-2 cell monolayer integrity.
(§3) The apparent permeability coefficient Papp (cm/s) was calculated using the equation: […]
(§4) Where dCp/dt is the cumulative concentration of compound in the receiver chamber as a function of time (μM/s); Vr is the solution volume in the receiver chamber (0.075 mL on the apical side, 0.25 mL on the basolateral side); A is the surface area for the transport, i.e. 0.0804 cm^2 for the area of the monolayer; Co is the initial concentration in the donor chamber (μM). The efflux ratio was calculated using the equation: […]
(§5) Percent recovery was calculated using the equation: […]
(§6) Where Vd is the volume in the donor chambers (0.075 mL on the apical side, 0.25 mL on the basolateral side); Ca and Cr are the final concentrations of transport compound in donor and receiver chambers, respectively.

in vitro = conditions: human; for recovery at 2 h: Caco-2, pH 7.4, Mean % Solution Recovery A to B
Method: as §1, §2, §3, §4, §5, §6

[3] = Oral SEDDS-formulated versus unformulated Bumetanide amides in rats, blood concentration; format: in vivo; conditions: male rats
Method: SEDDS-formulated and unformulated Bumetanide Morpholinoamide and Bumetanide Diethylamide were orally administered to rats. The experiment was conducted as described previously in regards to Bumetanide Dibenzylamide. Three male and three female rats at each time point for each of the SEDDS and non-SEDDS treatments were used. […] As this appeared to be experimental error, all female rats were removed from the data.

[4] = Caco-2, pH 7.4, Mean Papp (10^−6 cm/s) A to B
[5] = human, Caco-2, 2 h, 10 μM, pH 7.4

Structure (SMILES): CCCCNc1cc(C(=O)N(CC)CC)cc(S(N)(=O)=O)c1Oc1ccccc1 [Bumetanide Diethylamide]
Mean % Solution Recovery A to B (Caco-2 cells; Caco-2, A to B, second Table 73 (diethylamide run)): 77.4%
Mean Papp (10^−6 cm/s) A to B (Caco-2 cells; Caco-2, A to B, test compound 2.00 μM (digoxin 10.0 μM), 2 hours, HBSS pH 7.40, second Table 73 (diethylamide run)): 1.33 10^−6 cm/s
Efflux Ratio (Caco-2 cells; Caco-2, B to A / A to B, second Table 73 (diethylamide run)): 31.6
Mean % Solution Recovery B to A (Caco-2 cells; Caco-2, B to A, second Table 73 (diethylamide run)): 88.5%
Mean Papp (10^−6 cm/s) B to A (Caco-2 cells; Caco-2, B to A, test compound 2.00 μM (digoxin 10.0 μM), 2 hours, HBSS pH 7.40, second Table 73 (diethylamide run)): 42.0 10^−6 cm/s
Rank Efflux Transporter Substrate (Caco-2 cells; Caco-2 efflux ratio rank, second Table 73 (diethylamide run)): Likely
Rank Papp (Caco-2 cells; Caco-2 permeability rank, second Table 73 (diethylamide run)): Moderate (Moderate permeability: 0.500<Papp<2.50 (×10^−6 cm/s))
logP (physchem; octanol:water partition coefficient): 3.11

Structure (SMILES): COCCc1ccc(OCC(O)CNC(C)C)cc1 (stereo not drawn) [metoprolol, reference compound]
recovery at 2 h (in vitro): 94.7%
Papp A→B at 2 h (in vitro; [4]): 192 nm/s
Papp A→B at 2 h (in vitro; Caco-2, pH 7.4, Rank Papp): > 25 nm/s
Mean % Solution Recovery A to B (Caco-2 cells; human, Caco-2, 2 h, pH 7.4): 95.7%

Structure (SMILES): CCCCNc1cc(C(=O)N2CCOCC2)cc(S(N)(=O)=O)c1Oc1ccccc1 [Bumetanide Morpholinoamide]
blood concentration by 24 hrs [3]: no detectable concentration

Structure (SMILES): CCCCNc1cc(C(=O)N2CCOCC2)cc(S(N)(=O)=O)c1Oc1ccccc1 [Bumetanide morpholinoamide unformulated]
Efflux Ratio (Caco-2 cells; Caco-2): 43.8
Mean % Solution Recovery A to B (Caco-2 cells; Caco-2): 87.4%
Mean % Solution Recovery B to A (Caco-2 cells; Caco-2): 99.6%
Rank Efflux Transporter Substrate (Caco-2 cells; Caco-2): Likely
Mean Papp (10^−6 cm/s) A to B (Caco-2 cells; Caco-2, pH 7.4): 0.709 10^−6 cm/s
Mean Papp (10^−6 cm/s) B to A (Caco-2 cells; Caco-2, pH 7.4): 31.0 10^−6 cm/s

Structure (SMILES): C[C@H]1O[C@@H](O[C@H]2[C@@H](O)C[C@H](O[C@H]3[C@@H](O)C[C@H](O[C@H]4CC[C@@]5(C)[C@H](CC[C@@H]6[C@@H]5C[C@@H](O)[C@]5(C)[C@@H](C7=CC(=O)OC7)CC[C@]65O)C4)O[C@@H]3C)O[C@@H]2C)C[C@H](O)[C@@H]1O [Digoxin, reference compound]
efflux ratio at 2 h, 10 μM (in vitro; Caco-2, pH 7.4, Efflux Ratio): 586
recovery at 2 h (in vitro): 94.7%
recovery at 2 h, 10 μM (in vitro; Caco-2, pH 7.4, Mean % Solution Recovery B to A): 108%
Papp A→B at 2 h (in vitro; [4]): 0.223 nm/s
Papp B→A at 2 h, 10 μM (in vitro; Caco-2, pH 7.4, Mean Papp (10^−6 cm/s) B to A): 131 nm/s
Papp A→B at 2 h (in vitro; Caco-2, pH 7.4, Rank Papp): < 5 nm/s
Rank Efflux Transporter Substrate (Caco-2 cells; Caco-2): Likely
Efflux Ratio (Caco-2 cells; [5]): 800
Mean % Solution Recovery B to A (Caco-2 cells; [5]): 103.4%
Mean % Solution Recovery A to B (Caco-2 cells; human, Caco-2, 2 h, pH 7.4): 97.4%

Other lines, results leading:

Bumetanide levels [1]: not measureable
plasma concentrations of Bumetanide [2]: no measurable concentrations
logP (physchem): ~2.61
Structure (SMILES): CCCCNc1cc(C(=O)O)cc(S(N)(=O)=O)c1Oc1ccccc1 [Bumetanide, reference compound]

Efflux Ratio (Caco-2 cells; Caco-2): >0.825
Mean % Solution Recovery A to B (Caco-2 cells; Caco-2): <4.9%
Mean % Solution Recovery B to A (Caco-2 cells; Caco-2): 25.4%
Rank Efflux Transporter Substrate (Caco-2 cells; Caco-2): Poor or non-
Mean Papp (10^−6 cm/s) A to B (Caco-2 cells; Caco-2, pH 7.4): <0.480 10^−6 cm/s
Mean Papp (10^−6 cm/s) B to A (Caco-2 cells; Caco-2, pH 7.4): 0.396 10^−6 cm/s
Structure (SMILES): CCCCNc1cc(C(=O)N(Cc2ccccc2)Cc2ccccc2)cc(S(N)(=O)=O)c1Oc1ccccc1 [Bumetanide Dibenzylamide unformulated]

recovery at 2 h (in vitro): 97%
Papp A→B at 2 h (in vitro; [4]): 0.983 nm/s
Papp A→B at 2 h (in vitro; Caco-2, pH 7.4, Rank Papp): < 5 nm/s
Mean % Solution Recovery A to B (Caco-2 cells; human, Caco-2, 2 h, pH 7.4): 98.5%
Structure (SMILES): CC(C)(C)NCC(O)COc1cccc2c1CC(O)C(O)C2 (stereo not drawn) [nadolol, reference compound]
